Assay results published in patent US6825340B2, “Methods and reagents for inactivating ribonucleases” (Ambion, Inc., priority 1998, dated 2004).

Assay: DTNB test of DTT reducing strength (absorbance at 412 nm)
Format: physicochemical
Source text: DTT has low redox potential (−0.33 volts at pH 7.0) and is capable of maintaining monothiols effectively in the reduced form and of reducing disulfides quantitatively (Cleland, 1964). DTT acts as a protective agent for free sulfhydryl groups. […] DTT's reducing activity can be accurately assayed using 5, 5′-dithiobis (2-nitrobenzoic acid) or DTNB (Cleland, 1964). The reduction of DTNB mediated by DTT generates a yellow color whose absorbance can be measured at 412 nm using a spectrophotometer. RNase A, RNase 1 and RNase T1 all contain disulfide bonds (Ryle and Anfinesen, 1957; Barnard, 1969) and, therefore, are susceptible to reduction.
FIG. 5. DTT is oxidized by incubating at 65° C. for 6 days. DTT was made to 100 mM in water and incubated at 65° C. for 6 days. Fresh DTT and the heated 100 mM were diluted in water to different concentrations and subjected to the DTNB test. Absorbance at 412 nm indicates the reducing strength of the DTT.
To assess the effect that the ribonuclease mixture has on the oxidation of DTT, the RNase mixture at 1 μg/ml was incubated with DTT at 0.05, 0.1, 0.15, 0.2 and 0.25 mM at 60° C. for 20 minutes. 0.1 ml of each sample was added to 0.8 ml of 0.1 M KPO4 (pH 7.7) and 0.1 ml DTNB in 0.1 KPO4 (pH 7.7). Samples which were not treated with heat were also subjected to the DTNB assay for comparison. The DTNB reaction mixtures were incubated at 21° C. for 10 minutes to allow the yellow color to develop. Absorbances were measured at 412 nm. The results were that there was no difference in the reactivity of the DTT whether it had been used to inactivate the RNase mixture or not.
DTT was made to 100 mM in water and incubated at 65° C. for 6 days. This material was diluted to 50, 100, 150, 200, 250 micromolar in water and then assayed for its reducing strength using the DTNB test described in Example 7 and compared to the same concentrations of DTT made fresh in water. The absorbance at 412 nm directly correlates with reducing strength. The greater the absorbance, the greater the reducing power.

O[C@H](CS)[C@H](O)CS [DTT, dithiothreitol]
stability of DTT reducing strength (DTT 100 mM in water incubated at 65° C. for 6 days): completely oxidized
reactivity of DTT after use to inactivate the RNase mixture vs non-reacted DTT (RNase mixture 1 μg/ml, DTT 0.05-0.25 mM, 60° C. for 20 minutes): no difference
loss of DTT reducing power with each heating step (sequential inactivations, 60° C. for 20 minutes): no detectable loss
